Values quoted from earlier work, collected in publication PMC4457528, “Identification of Novel Small Molecule Inhibitors of Oncogenic RET Kinase” (PLoS ONE, 2015).

How the values were obtained:
[1] = tested on: RET and its gate-keeper mutants; conditions: cited from earlier work
[2] = tested on: RET Y806C; set-up: method as in PMID 15184865, PMID 19029224; conditions: cited from earlier work

Compound	inhibition of RET and its gate-keeper mutants [1]	fold increase of in vitro IC50 dose for RET by Y806C [2] [fold]
Cc1ccc(C(=O)Nc2ccc(CN3CCN(C)CC3)c(C(F)(F)F)c2)cc1C#Cc1cnc2cccnn12 [ponatinib]	potently inhibits	–
COc1cc2c(Nc3ccc(Br)cc3F)ncnc2cc1OCC1CCN(C)CC1 [vandetanib]	–	10
